Results on five compounds are retold here after patent publication US20080227096A1, “Assay for response to proteasome inhibitors” (Centenary Institute of Cancer Medicine and Cell Biology, priority 2006, published 2008).

Like-named read-outs stand apart in the source and are kept apart here.

In one series the test system is H929 myeloma cells. Nature of the series: Bortezomib resistance (proliferation inhibition) assay, H929. It counts as cell-based, human. The protocol: (§1) Cytotoxicity assays were performed essentially as described previously (16). For myeloma cell lines, some modifications were made due to their slow growth rate, non-adherence to the culture plate and sensitivity to sparse plating. Briefly, cells were seeded at 10,000 per well in 96-well plates in RPMI-1640 without phenol red (which interferes with detection of fluorescence). Bortezomib (Millennium Pharmaceuticals; Johnson & Johnson Pharmaceuticals) was applied in a concentration series along the long plate axis. After 5 days of proliferation, cells were permeabilised in situ by adding 5% by volume of 21 X Triton X-100 buffer (10 mM TrisHCl pH 7.4, 5 mM EDTA, 0.1% Triton X-100) and Sybr I Green (Invitrogen) 1:4000. The lysate was mixed thoroughly with a multi-channel pipette. One cycle of freeze and thaw was performed to ensure complete lysis. The fluorescence, measured on a plate reader (Wallac), was proportional to the number of viable cells at the end point. The IC50 was determined as the concentration of drug that inhibited proliferation to 50% of the untreated controls (see FIG. 5A-5E).
(§2) H929 and RPMI8226 myeloma cells were transduced with virus as follows. […] Total XBP-1 and sensitivity to Bortezomib was determined as previously described (Example 1.1 and Example 2.1, respectively).

Series [1] deals with relapsed myeloma. To be noted: patients with relapsed myeloma, randomised trial, cited from earlier work.
The subject of series [2] is prostate cancer cell line LNCaP. The experiment in a line: Bortezomib resistance (proliferation inhibition) assay, LNCaP. Particulars: compared with other non-myeloma cell lines, 5 days proliferation. It counts as cell-based, human. The protocol:
as §1, with “The IC50 was determined as the concentration of drug that inhibited proliferation to 50% of the untreated controls (see FIG. 5A-5E).” left out
(§3) Briefly, myeloma cell lines, prostate cancer cell lines and lymphoid cell lines were cultured in RPMI-1640 supplemented with 10% foetal calf serum, 100 units/mL penicillin G and 100 μg/mL streptomycin. […] Quantitation of spliced and unspliced XBP-1 and determination of sensitivity to Bortezomib was carried out as previously described (Examples 1.1, 1.2 and 2.1, respectively).

The next series concerns the target P-glycoprotein (Homo sapiens, UniProt P08183). Particulars: cited from earlier work.
In another series the test system is refractory myeloma. To be noted: cited from earlier work.
Another series concerns RPMI8226 myeloma cells. The experiment in a line: Bortezomib resistance (proliferation inhibition) assay, RPMI8226. It counts as cell-based, human. The protocol: Cytotoxicity assays were performed essentially as described previously (16). For myeloma cell lines, some modifications were made due to their slow growth rate, non-adherence to the culture plate and sensitivity to sparse plating. Briefly, cells were seeded at 10,000 per well in 96-well plates in RPMI-1640 without phenol red (which interferes with detection of fluorescence). Bortezomib (Millennium Pharmaceuticals; Johnson & Johnson Pharmaceuticals) was applied in a concentration series along the long plate axis. […] The fluorescence, measured on a plate reader (Wallac), was proportional to the number of viable cells at the end point. […]
as §3, §2

Series [3] has as its system relapsed myeloma. Particulars: single agent, relapsed disease; cited from earlier work.
The target of a further series is P-glycoprotein (P-gp) (Homo sapiens, UniProt P08183). To be noted: cyclosporin D derivative; cited from earlier work.
The test system of series [4] is myeloma. To be noted: phase III randomised control trial; cited from earlier work.
Series [5] concerns myeloma. To be noted: cited from earlier work.
The test system of a further series is myeloma cells. Particulars: direct inhibition of NF-κB; cited from earlier work.

P-glycoprotein, sequence (P08183 whole entry): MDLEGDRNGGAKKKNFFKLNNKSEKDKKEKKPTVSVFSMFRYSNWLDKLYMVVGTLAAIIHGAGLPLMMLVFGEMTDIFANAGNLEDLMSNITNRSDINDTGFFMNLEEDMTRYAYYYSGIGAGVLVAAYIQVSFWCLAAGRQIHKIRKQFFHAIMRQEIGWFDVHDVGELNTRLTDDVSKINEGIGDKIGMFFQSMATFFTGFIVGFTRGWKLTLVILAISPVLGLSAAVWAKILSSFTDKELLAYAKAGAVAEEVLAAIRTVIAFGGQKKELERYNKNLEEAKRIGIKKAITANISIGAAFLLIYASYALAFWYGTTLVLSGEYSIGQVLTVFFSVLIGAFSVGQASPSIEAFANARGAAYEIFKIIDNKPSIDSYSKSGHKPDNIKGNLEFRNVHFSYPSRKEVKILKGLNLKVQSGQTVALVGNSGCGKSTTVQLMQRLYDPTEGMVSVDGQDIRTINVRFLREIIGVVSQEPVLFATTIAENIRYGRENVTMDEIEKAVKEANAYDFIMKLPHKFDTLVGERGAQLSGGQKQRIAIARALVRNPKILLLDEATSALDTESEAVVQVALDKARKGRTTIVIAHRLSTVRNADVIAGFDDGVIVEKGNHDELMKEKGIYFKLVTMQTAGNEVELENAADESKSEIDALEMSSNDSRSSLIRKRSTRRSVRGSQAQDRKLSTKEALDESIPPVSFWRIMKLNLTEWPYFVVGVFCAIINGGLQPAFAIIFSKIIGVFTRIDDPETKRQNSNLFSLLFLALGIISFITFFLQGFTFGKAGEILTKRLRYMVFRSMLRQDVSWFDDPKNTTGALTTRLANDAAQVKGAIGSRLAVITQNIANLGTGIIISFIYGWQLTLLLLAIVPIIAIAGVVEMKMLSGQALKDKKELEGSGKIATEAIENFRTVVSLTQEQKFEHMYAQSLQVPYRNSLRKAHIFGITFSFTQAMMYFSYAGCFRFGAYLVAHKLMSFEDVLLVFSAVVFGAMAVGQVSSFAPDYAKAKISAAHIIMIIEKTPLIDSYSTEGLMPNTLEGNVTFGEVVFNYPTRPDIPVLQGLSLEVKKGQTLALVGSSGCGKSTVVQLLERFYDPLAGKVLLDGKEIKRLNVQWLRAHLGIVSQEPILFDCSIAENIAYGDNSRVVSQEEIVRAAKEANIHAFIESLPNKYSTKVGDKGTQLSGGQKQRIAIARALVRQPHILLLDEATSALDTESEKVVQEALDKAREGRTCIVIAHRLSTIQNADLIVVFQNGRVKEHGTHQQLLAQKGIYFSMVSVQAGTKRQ
P-glycoprotein (P-gp), sequence (P08183 whole entry): as above

On to `CC(C)C[C@H](NC(=O)[C@H](Cc1ccccc1)NC(=O)c1cnccn1)B(O)O` [Bortezomib], for which the “change of sensitivity to Bortezomib after shRNA knockdown of XBP-1” value is “decrease in sensitivity to Bortezomib but the change was modest” with H929 myeloma cells (H929 cells, XBP-1 knockdown) and “No such effect on sensitivity to Bortezomib” in the series on RPMI8226 myeloma cells (RPMI8226 cells, XBP-1 knockdown). In addition, the “sensitivity of cell line to Bortezomib (rank)” value with H929 myeloma cells (myeloma cell lines, 5 days proliferation) is given as “most sensitive to Bortezomib”; in [2], “most sensitive to Bortezomib of the non-myeloma cell lines”. Moreover, the overall response rate in the series on relapsed myeloma [1] (p<0.001) is 38%; in the series with refractory myeloma (refractory cases, phase I and II trials), approximately 30%. Moreover, the complete response rate with relapsed myeloma [1] was 6%. In the series on relapsed myeloma [1], the one-year survival rate is recorded as 80%. Also, at P-glycoprotein, the P-glycoprotein substrate entry was “not a significant P-glycoprotein substrate”. The side effects result in the series with refractory myeloma (a significant proportion of patients) was “fatigue, nausea, diarrhoea, thrombocytopenia, anaemia and peripheral neuropathy”. Also, the “primary resistance, proportion of relapsed patients” value in the series with refractory myeloma (relapsed patients) is on record as “about 60%”. Also, in the series with RPMI8226 myeloma cells (RPMI8226 transfectants vs vector control), the “change of sensitivity to Bortezomib after overexpression of spliced or unspliced XBP-1 cDNA” value was “only a small effect on sensitivity”.

For the compound `O=C1CCC(N2C(=O)c3ccccc3C2=O)C(=O)N1` (stereo not drawn) [thalidomide], in the series on relapsed myeloma [3], the overall response rate is approximately 32% and the “patients with at least very good partial response or complete response” value is “approximately 10%”.

Turning to `C/C=C/C[C@@H](C)C(=O)[C@H]1C(=O)N[C@@H](C(C)C)C(=O)N(C)CC(=O)N(C)[C@@H](CC(C)C)C(=O)N[C@@H](C(C)C)C(=O)N(C)[C@@H](CC(C)C)C(=O)N[C@@H](C)C(=O)N[C@H](C)C(=O)N(C)[C@@H](CC(C)C)C(=O)N(C)[C@@H](CC(C)C)C(=O)N(C)[C@@H](C(C)C)C(=O)N1C` [Valspodar], the “potency of inhibitory activity on P-gp (relative)” value on P-glycoprotein (P-gp) is 5 times. For the same compound, the “toxicity on addition of the P-gp inhibitor” value with myeloma [4] is “increased toxicity”.

Take interferon-α: in the series on myeloma [5], the “effect of maintenance therapy on response and survival” value is “marginal effect in terms of prolonging response and survival”.

For `O=C(Nc1cc(Cl)cc2c1[nH]c1cnccc12)c1cccnc1` [PS-1145], the “inhibition of proliferation of myeloma cells” value in the series with myeloma cells is “insufficient to completely inhibit the proliferation”.
